US12428394B2, “2,4-disubstituted pyrimidine derivative, preparation method therefor and use thereof” (CHENGDU ZENITAR BIOMEDICAL TECHNOLOGY CO., LTD., priority 2019, dated 2025)

Tests used:
[1] = test system: MV4-11 cells (FLT3-ITD+/+); assay: Inhibition of cell proliferation by MTT experiment, MV4-11; assay type: cell-based, human; details: Homo sapiens, MV4-11; MTT, 72 h; read-out: IC50 value on cell proliferation inhibition, MV4-11 FLT3-ITD+/+
From the text: (§1) MV4-11, MOLM-13 and SET-2 were used to determine the influence of the test compound of the present invention on the activity of cancer cells. MV4-11 and MOLM-13 were human leukemia cell lines from American Type Culture Collection (ATCC), expressing FLT3 receptor and containing FLT3-ITD mutation; and SET-2 was a primary thrombocythemia cell purchased from Chengdu Bowerston Biotechnology Co., Ltd., China, continuously expressing JAK2 receptor and containing the mutation of V617F.
(§2) MV4-11, MOLM-13 and SET-2 cells were filled in a 96-well petri dish with 100 μL IMDM as the medium, containing 10% fetal bovine serum (100 mL/bottle, purchased from Grassland Lvye Bio-Engineering Materials Co., Ltd. and cryopreserved at −20° C.), and with 10,000-15,000 cells in each well. […] In each group, 3-5 replicate wells were set and incubated in 5% CO2 at 37° C. for 72 h. At the endpoint, 20 μL MTT (5 mg/mL) was added to each well, and the cells were incubated for another 1-3 h.
(§3) After the inhibition rate of each concentration of compound on cell proliferation activity was calculated, the dose-response curve and IC50 value were fitted by Graphpad prism software according to the compound treatment concentrations and corresponding inhibition rates.

[2] = test system: MOLM-13 cells (FLT3-ITD-/+); assay: Inhibition of cell proliferation by MTT experiment, MOLM-13; assay type: cell-based, human; details: Homo sapiens, MOLM-13; MTT, 72 h; read-out: IC50 value on cell proliferation inhibition, MOLM-13 FLT3-ITD-/+
From the text: as §1, §2, §3

SET-2 cells (JAK2 V617F) = assay: Inhibition of cell proliferation by MTT experiment, SET-2; assay type: cell-based; details: Homo sapiens, SET-2; MTT, 72 h; read-out: IC50 value on cell proliferation inhibition, SET-2 (V617F)
From the text: as §1, §2, §3

FLT3 = biological target: T1, FLT3 (Homo sapiens, UniProt P36888); assay: In vitro kinase activity experiment, FLT3; assay type: biochemical; details: 40 min; inhibition rate of enzyme at 500 nM; measured by Eurofins; read-out: Kinase activity @ 500 nM (%) FLT3
T1 construct: purchased Eurofins
T1 sequence (P36888 27-993): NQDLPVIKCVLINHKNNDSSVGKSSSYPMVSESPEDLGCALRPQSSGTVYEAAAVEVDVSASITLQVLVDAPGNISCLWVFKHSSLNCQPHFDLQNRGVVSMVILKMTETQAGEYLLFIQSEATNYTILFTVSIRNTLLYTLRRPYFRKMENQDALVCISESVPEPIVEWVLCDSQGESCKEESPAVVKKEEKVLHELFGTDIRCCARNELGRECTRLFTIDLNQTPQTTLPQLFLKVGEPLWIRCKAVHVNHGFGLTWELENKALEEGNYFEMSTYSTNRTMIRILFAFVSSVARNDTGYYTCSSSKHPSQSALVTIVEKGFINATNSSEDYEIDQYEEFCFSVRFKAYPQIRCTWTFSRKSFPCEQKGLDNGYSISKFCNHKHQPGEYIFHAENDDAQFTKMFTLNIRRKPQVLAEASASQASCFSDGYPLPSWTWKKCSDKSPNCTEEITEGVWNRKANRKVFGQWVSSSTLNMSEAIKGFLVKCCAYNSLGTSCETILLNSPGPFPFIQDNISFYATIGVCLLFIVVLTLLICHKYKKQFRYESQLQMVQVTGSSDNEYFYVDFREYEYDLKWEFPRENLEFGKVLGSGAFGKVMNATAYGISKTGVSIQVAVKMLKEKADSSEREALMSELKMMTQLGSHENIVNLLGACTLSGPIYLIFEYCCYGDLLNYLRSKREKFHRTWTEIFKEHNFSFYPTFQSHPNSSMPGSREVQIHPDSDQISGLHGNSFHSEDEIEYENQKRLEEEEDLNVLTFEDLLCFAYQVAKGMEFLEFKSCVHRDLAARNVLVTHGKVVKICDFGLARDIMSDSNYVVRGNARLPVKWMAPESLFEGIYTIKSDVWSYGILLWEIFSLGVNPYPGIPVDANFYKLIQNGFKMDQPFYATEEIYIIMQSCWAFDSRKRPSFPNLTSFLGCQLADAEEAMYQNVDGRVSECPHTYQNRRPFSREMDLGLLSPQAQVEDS
Description: (§4) Buffer solution ([…], pH 7.0, 0.2 mm EDTA, 10 mM mncl2), kinase to be tested, substrate of kinase to be tested, 10 mM magnesium acetate and γ33P-ATP solution, and compounds with different concentrations were added to a reaction tube in turn, then MgATP was added to initiate the enzyme reaction process, and incubated at room temperature for 40 min. Then, the reaction was terminated with 5 μl of […], and 10 μl of the reaction solution was titrated onto the Filtermat A membrane, washed with 75 mM phosphate solution for three times, each time for 5 min., and then washed with methanol once. Finally, the Filtermat A membrane was dried and the scintillation count was carried out.

JAK2 = biological target: T2, JAK2 (Homo sapiens, UniProt O60674); assay: In vitro kinase activity experiment, JAK2; assay type: biochemical; details: inhibition rate of enzyme at 500 nM; measured by Eurofins
T2 construct: purchased Eurofins
T2 sequence (O60674 whole entry): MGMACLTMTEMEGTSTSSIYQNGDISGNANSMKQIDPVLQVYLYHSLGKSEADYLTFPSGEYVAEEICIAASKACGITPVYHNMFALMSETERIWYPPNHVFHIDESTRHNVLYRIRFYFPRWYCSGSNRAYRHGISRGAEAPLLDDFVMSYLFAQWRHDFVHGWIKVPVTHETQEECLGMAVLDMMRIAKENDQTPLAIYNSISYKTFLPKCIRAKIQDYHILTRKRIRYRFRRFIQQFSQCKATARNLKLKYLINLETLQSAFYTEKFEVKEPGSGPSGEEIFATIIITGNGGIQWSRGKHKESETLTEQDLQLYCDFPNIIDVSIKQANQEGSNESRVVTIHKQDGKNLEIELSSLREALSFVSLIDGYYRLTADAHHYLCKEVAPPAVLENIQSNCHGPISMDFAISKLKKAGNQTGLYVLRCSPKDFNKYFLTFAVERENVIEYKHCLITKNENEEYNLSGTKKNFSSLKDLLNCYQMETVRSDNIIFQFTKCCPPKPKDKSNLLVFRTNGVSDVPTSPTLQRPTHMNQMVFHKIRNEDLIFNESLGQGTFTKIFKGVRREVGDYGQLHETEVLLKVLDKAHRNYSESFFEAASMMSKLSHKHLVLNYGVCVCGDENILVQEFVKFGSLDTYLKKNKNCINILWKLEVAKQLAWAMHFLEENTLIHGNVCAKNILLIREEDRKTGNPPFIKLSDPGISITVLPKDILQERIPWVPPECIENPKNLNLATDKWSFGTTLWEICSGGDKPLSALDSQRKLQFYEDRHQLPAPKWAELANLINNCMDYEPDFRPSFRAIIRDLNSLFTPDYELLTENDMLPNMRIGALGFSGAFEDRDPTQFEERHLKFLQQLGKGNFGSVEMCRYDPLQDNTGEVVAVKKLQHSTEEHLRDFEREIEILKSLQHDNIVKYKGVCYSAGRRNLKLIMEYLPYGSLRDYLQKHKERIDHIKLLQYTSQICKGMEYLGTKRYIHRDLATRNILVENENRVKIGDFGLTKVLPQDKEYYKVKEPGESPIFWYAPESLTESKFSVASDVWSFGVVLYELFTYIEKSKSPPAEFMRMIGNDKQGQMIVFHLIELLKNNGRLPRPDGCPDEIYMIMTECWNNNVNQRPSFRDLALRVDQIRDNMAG
Description: as §4

SMILES	IC50 [1] [nM]	IC50 [2] [nM]	IC50 (SET-2 cells (JAK2 V617F)) [nM]	inhibition at 0.5 µM (FLT3) [%]	Kinase activity @ 500 nM (%) JAK2 (JAK2) [%]
CC(C)N1CCN(Cc2ccc(Nc3ncc(F)c(-c4ccc(CN5CCCC5)o4)n3)nc2)CC1 [CLJ-1, 5-fluoro-N-(5-((4-isopropylpiperazine-1-yl)methyl)pyridine-2-yl)-4-(5-(pyrrolidine-1-ylmethyl)furan-2-yl) pyrimidine-2-amine]	100 to 1000	100 to 1000	> 1000	33	46
CCN1CCN(c2ccc(Nc3ncc(F)c(-c4ccc(CN5CCCC5)o4)n3)nc2)CC1 [CLJ-2]	100 to 1000	100 to 1000	> 1000	25	30
CC(C)N1CCN(Cc2ccc(Nc3ncc(F)c(-c4ccc(CN5CCc6ccccc65)o4)n3)nc2)CC1 [CLJ-3, 5-fluoro-4-(5-(dihydroindole-1-ylmethyl)furan-2-yl)-N-(5-((4-isopropylpiperazine-1-yl)methyl)pyridine-2-yl) pyrimidine-2-amine]	100 to 1000	100 to 1000	> 1000	29	45
CCCn1cc(-c2nc(Nc3cc(CN4CCCC(C)C4)c(F)cn3)ncc2F)cn1 (stereo not shown) [CLJ-4, 5-fluoro-N-(5-fluoro-4-((3-methylpiperidine-1-yl)methyl)pyridine-2-yl)-4-(1-propyl-1H-pyrazole-4-yl) pyrimidine-2-amine]	100 to 1000	100 to 1000	> 1000	28	38
CCCn1cc(-c2nc(Nc3cc(CN4CCN(CC)CC4)c(F)cn3)ncc2F)cn1 [CLJ-5, 5-fluoro-N-(5-fluoro-4-((4-ethylpiperazine-1-yl)methyl)pyridine-2-yl)-4-(1-propyl-1H-pyrazole-4-yl) pyrimidine-2-amine]	100 to 1000	100 to 1000	> 1000	34	40
CCCn1cc(-c2nc(Nc3ccc(N4CCN(C)CC4)cc3F)ncc2F)cn1 [CLJ-6, 5-fluoro-N-(2-fluoro-4-(4-methylpiperazine-1-yl)phenyl)-4-(1-propyl-1H-pyrazol-4-yl) pyrimidine-2-amine]	> 1000	> 1000	> 1000	34	30
CCCn1cc(-c2nc(Nc3ccc(N4CCN(C)CC4)c(F)c3)ncc2F)cn1 [CLJ-7, 5-fluoro-N-(3-fluoro-4-(4-methylpiperazine-1-yl)phenyl)-4-(1-propyl-1H-pyrazol-4-yl) pyrimidine-2-amine]	100 to 1000	100 to 1000	> 1000	28	38
CCCn1cc(-c2nc(Nc3ccc(N4CCN(CC)CC4)cc3F)ncc2F)cn1 [CLJ-8, 5-fluoro-N-(2-fluoro-4-(4-ethylpiperazine-1-yl)phenyl)-4-(1-propyl-1H-pyrazole-4-yl) pyrimidine-2-amine]	100 to 1000	100 to 1000	> 1000	40	30
CCCn1cc(-c2nc(Nc3ccc(N4CCN(CC)CC4)c(F)c3)ncc2F)cn1 [CLJ-9, 5-fluoro-N-(3-fluoro-4-(4-ethylpiperazine-1-yl)phenyl)-4-(1-propyl-1H-pyrazole-4-yl) pyrimidine-2-amine]	10 to 100	100 to 1000	> 1000	20	27
CCCCn1cc(-c2nc(Nc3ccc(N4CCN(C)CC4)c(F)c3)ncc2F)cn1 [CLJ-10, 5-fluoro-N-(3-fluoro-4-(4-methylpiperazine-1-yl)phenyl)-4-(1-butyl-1H-pyrazol-4-yl) pyrimidine-2-amine]	> 1000	100 to 1000	> 1000	25	37
CCCN1CCC(n2cc(-c3nc(Nc4ccc(N5CCN(C)CC5)cc4)ncc3F)cn2)CC1 [CLJ-11, 5-fluoro-N-(4-(4-methylpiperazine-1-yl)phenyl)-4-(1-(1-propylpiperidine-4-yl)-1H-pyrazole-4-yl) pyrimidine-2-amine]	10 to 100	100 to 1000	> 1000	94	78
CCCN1CCC(n2cc(-c3nc(Nc4ccc(N5CCN(C)CC5)c(F)c4)ncc3F)cn2)CC1 [CLJ-12, 5-fluoro-N-(3-fluoro-4-(4-methylpiperazine-1-yl)pheny)-4-(1-(1-propylpiperidine-4-yl)-1H-pyrazole-4-yl) pyrimidine-2-amine]	> 1000	> 1000	> 1000	20	27
CCCCN1CCC(n2cc(-c3nc(Nc4ccc(N5CCN(C)CC5)c(F)c4)ncc3F)cn2)CC1 [CLJ-13, 5-fluoro-N-(3-fluoro-4-(4-methylpiperazine-1-yl)phenyl)-4-(1-(1-butylpiperidine-4-yl)-1H-pyrazole-4-yl) pyrimidine-2-amine]	10 to 100	100 to 1000	> 1000	95	89
Cc1c(-c2nc(Nc3ccc(N4CCN(C5CCN(C)CC5)CC4)c(F)c3)ncc2F)cnn1C [CLJ-15]	10 to 100	100 to 1000	> 1000	94	93
CN1CCN(c2ccc(Nc3ncc(F)c(-c4cnn(C5CCCC5)c4)n3)cc2F)CC1 [CLJ-16, 5-fluoro-N-(3-fluoro-4-(4-methylpiperazine-1-yl)phenyl)-4-(1-cyclopentyl-1H-pyrazol-4-yl) pyrimidine-2-amine]	10 to 100	100 to 1000	> 1000	95	96
CCN1CCN(c2ccc(Nc3ncc(F)c(-c4cnn(C5CCCC5)c4)n3)cc2F)CC1 [CLJ-17, 5-fluoro-N-(3-fluoro-4-(4-ethylpiperazine-1-yl)phenyl)-4-(1-cyclopentyl-1H-pyrazole-4-yl) pyrimidine-2-amine]	10 to 100	100 to 1000	100 to 1000	94	90
CN(C)C1CCN(c2ccc(Nc3ncc(F)c(-c4cnn(C5CCCC5)c4)n3)cc2F)CC1 [CLJ-18, 5-fluoro-N-(3-fluoro-4-(4-dimethylaminopiperidine-1-yl)phenyl)-4-(1-cyclopentyl-1H-pyrazole-4-yl) pyrimidine-2-amine]	10 to 100	100 to 1000	100 to 1000	93	93
